Source: ChEMBL document CHEMBL1134814, “New anti-MRSA cephalosporins with a basic aminopyridine at the C-7 position” (2001)
Converted amounts (≈) assume the structure as drawn.

How the values were obtained:
Type in all cases: functional
Staphylococcus aureus [1] = test: In vitro inhibition of growth of methicillin-resistant Staphylococcus aureus MRSA ATCC 335893 (clinical isolates)
Staphylococcus aureus [2] = test: In vitro inhibition of growth of methicillin-resistant Staphylococcus aureus MRSA 76 (clinical isolates)
Staphylococcus aureus [3] = test: In vitro inhibition of growth of methicillin-resistant Staphylococcus aureus MRSA spain 356 (clinical isolates)

Row | Structure (SMILES) | MIC (Staphylococcus aureus [1]) | MIC (Staphylococcus aureus [2]) | MIC (Staphylococcus aureus [3])
1 | NCCSCc1nc(N)sc1SC1=C(C(=O)O)N2C(=O)[C@@H](NC(=O)/C(=N\O)c3cccc(N)n3)[C@H]2SC1 | 2 µg/mL (≈ 3.43 µM) | 8 µg/mL (≈ 13.7 µM) | 4 µg/mL (≈ 6.86 µM)
2 | NCCSCc1csc(SC2=C(C(=O)O)N3C(=O)[C@@H](NC(=O)/C(=N\O)c4cccc(N)n4)[C@H]3SC2)n1 | 1 µg/mL (≈ 1.76 µM) | 2 µg/mL (≈ 3.52 µM) | 2 µg/mL (≈ 3.52 µM)
3 | NCCSCc1ccccc1SC1=C(C(=O)O)N2C(=O)[C@@H](NC(=O)/C(=N\O)c3cccc(N)n3)[C@H]2SC1 | 1 µg/mL (≈ 1.78 µM) | 1 µg/mL (≈ 1.78 µM) | 1 µg/mL (≈ 1.78 µM)
4 | NCCSCc1ncsc1SC1=C(C(=O)O)N2C(=O)[C@@H](NC(=O)/C(=N\O)c3cccc(N)n3)[C@H]2SC1 | 1 µg/mL (≈ 1.76 µM) | 2 µg/mL (≈ 3.52 µM) | 2 µg/mL (≈ 3.52 µM)
5 | NCCSCc1cnccc1SC1=C(C(=O)O)N2C(=O)[C@@H](NC(=O)/C(=N\O)c3nc(N)sc3Cl)[C@H]2SC1 | 1 µg/mL (≈ 1.66 µM) | 1 µg/mL (≈ 1.66 µM) | 1 µg/mL (≈ 1.66 µM)
6 | COc1nc(CSCCN)c(SC2=C(C(=O)O)N3C(=O)[C@@H](NC(=O)/C(=N\O)c4cccc(N)n4)[C@H]3SC2)s1 | 4 µg/mL (≈ 6.69 µM) | 4 µg/mL (≈ 6.69 µM) | 4 µg/mL (≈ 6.69 µM)
7 | NCCSCc1nc(SCCN)sc1SC1=C(C(=O)O)N2C(=O)[C@@H](NC(=O)/C(=N\O)c3cccc(N)n3)[C@H]2SC1 | 1 µg/mL (≈ 1.56 µM) | 1 µg/mL (≈ 1.56 µM) | 1 µg/mL (≈ 1.56 µM)
8 | NCCSCc1cnccc1SC1=C(C(=O)O)N2C(=O)[C@@H](NC(=O)/C(=N\O)c3cccc(N)n3)[C@H]2SC1 | 2 µg/mL (≈ 3.56 µM) | 1 µg/mL (≈ 1.78 µM) | 2 µg/mL (≈ 3.56 µM)
9 | Cc1nc(CSCCN)c(SC2=C(C(=O)O)N3C(=O)[C@@H](NC(=O)/C(=N\O)c4cccc(N)n4)[C@H]3SC2)s1 | 2 µg/mL (≈ 3.44 µM) | 2 µg/mL (≈ 3.44 µM) | 2 µg/mL (≈ 3.44 µM)
10 | NCCSCc1nc(Cl)sc1SC1=C(C(=O)O)N2C(=O)[C@@H](NC(=O)/C(=N\O)c3cccc(N)n3)[C@H]2SC1 | 1 µg/mL (≈ 1.66 µM) | 2 µg/mL (≈ 3.32 µM) | 1 µg/mL (≈ 1.66 µM)
11 | NCCSc1cncc(SC2=C(C(=O)O)N3C(=O)[C@@H](NC(=O)/C(=N\O)c4cccc(N)n4)[C@H]3SC2)n1 | 8 µg/mL (≈ 14.6 µM) | 16 µg/mL (≈ 29.2 µM) | 16 µg/mL (≈ 29.2 µM)
12 | NCCCSc1nsc(SC2=C(C(=O)O)N3C(=O)[C@@H](NC(=O)/C(=N\O)c4cccc(N)n4)[C@H]3SC2)n1 | 2 µg/mL (≈ 3.52 µM) | 2 µg/mL (≈ 3.52 µM) | 2 µg/mL (≈ 3.52 µM)
13 | NCCSc1nsc(SC2=C(C(=O)O)N3C(=O)[C@@H](NC(=O)/C(=N\O)c4cccc(N)n4)[C@H]3SC2)n1 | 2 µg/mL (≈ 3.61 µM) | 2 µg/mL (≈ 3.61 µM) | 2 µg/mL (≈ 3.61 µM)
14 | NCCSCc1nnsc1SC1=C(C(=O)O)N2C(=O)[C@@H](NC(=O)/C(=N\O)c3cccc(N)n3)[C@H]2SC1 | 1 µg/mL (≈ 1.76 µM) | 1 µg/mL (≈ 1.76 µM) | 1 µg/mL (≈ 1.76 µM)
15 | NCCSc1nccnc1SC1=C(C(=O)O)N2C(=O)[C@@H](NC(=O)/C(=N\O)c3cccc(N)n3)[C@H]2SC1 | 2 µg/mL (≈ 3.65 µM) | 2 µg/mL (≈ 3.65 µM) | 2 µg/mL (≈ 3.65 µM)
16 | NCCSCc1nnsc1SC1=C(C(=O)O)N2C(=O)[C@@H](NC(=O)/C(=N\O)c3csc(N)n3)[C@H]2SC1 | 1 µg/mL (≈ 1.74 µM) | 1 µg/mL (≈ 1.74 µM) | 1 µg/mL (≈ 1.74 µM)
17 | NCCSCc1nsc(SC2=C(C(=O)O)N3C(=O)[C@@H](NC(=O)/C(=N\O)c4cccc(N)n4)[C@H]3SC2)n1 | 2 µg/mL (≈ 3.52 µM) | 4 µg/mL (≈ 7.03 µM) | 4 µg/mL (≈ 7.03 µM)
18 | NCCSc1nccc(SC2=C(C(=O)O)N3C(=O)[C@@H](NC(=O)/C(=N\O)c4cccc(N)n4)[C@H]3SC2)n1 | 8 µg/mL (≈ 14.6 µM) | 16 µg/mL (≈ 29.2 µM) | 16 µg/mL (≈ 29.2 µM)
19 | C[C@@H](O)[C@H]1C(=O)N2C(C(=O)O)=C(SCCNC=N)C[C@H]12 [IMIPENEM ANHYDROUS] | 32 µg/mL (≈ 107 µM) | 32 µg/mL (≈ 107 µM) | 32 µg/mL (≈ 107 µM)
